From US20100234438A1, “THERAPEUTIC AGENTS” (priority 2006, published 2010)

Target: T1, CB1 receptor (Homo sapiens, UniProt P21554)
T1 construct: expressed in transfected cells
Assay: [35S]-GTPγS binding assay on membranes from cells stably transfected with the CB1 gene, inhibition of agonist CP55940 (EC80)
Format: biochemical
Conditions: half maximal inhibition of GTPγS binding in presence of EC80 concentration of CP55940; 30° C., 45 min
Protocol: The compound of the present invention is active against the receptor product of the CB1 gene. The affinity of the compounds of the invention for central cannabinoid receptors is demonstrable in methods described in Devane et al, Molecular Pharmacology, 1988, 34,605 or those described in WO01/70700 or EP 656354. Alternatively the assay may be performed as follows.
10 μg of membranes prepared from cells stably transfected with the CB1 gene were suspended in 200 μl of 100 mM NaCl, 5 mM MgCl2, 1 mM EDTA, 50 mM HEPES (pH 7.4), 1 mM DTT, 0.1% BSA and 100 μM GDP. To this was added an EC80 concentration of agonist (CP55940), the required concentration of test compound and 0.1 μCi [^35S]-GTPγS. The reaction was allowed to proceed at 30° C. for 45 min. […] Filters were then covered with scintilant and counted for the amount of [^35S]-GTPγS retained by the filter.
Activity is measured in the absence of all ligands (minimum activity) or in the presence of an EC80 concentration of CP55940 (maximum activity). […] At various concentrations of novel ligand, activity is calculated as a percentage of the maximum activity and plotted. The data are fitted using the equation y=A+((B−A)/1+((C/x) ÙD)) and the IC50 value determined as the concentration required to give half maximal inhibition of GTPγS binding under the conditions used.

T1 sequence (P21554 whole entry): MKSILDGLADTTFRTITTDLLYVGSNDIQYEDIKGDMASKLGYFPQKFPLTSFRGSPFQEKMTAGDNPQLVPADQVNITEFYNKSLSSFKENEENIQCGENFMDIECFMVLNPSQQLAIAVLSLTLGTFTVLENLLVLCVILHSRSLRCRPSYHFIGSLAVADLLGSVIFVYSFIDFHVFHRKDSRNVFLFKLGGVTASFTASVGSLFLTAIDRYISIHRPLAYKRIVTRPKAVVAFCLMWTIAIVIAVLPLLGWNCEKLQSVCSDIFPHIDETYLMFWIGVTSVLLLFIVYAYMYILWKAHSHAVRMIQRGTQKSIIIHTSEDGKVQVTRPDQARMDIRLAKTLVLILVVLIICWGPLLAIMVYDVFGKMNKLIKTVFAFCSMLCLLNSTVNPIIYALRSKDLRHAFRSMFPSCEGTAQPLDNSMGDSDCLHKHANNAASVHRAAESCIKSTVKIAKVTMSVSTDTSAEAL

## O=C(N[C@@H]1CCCC[C@@H]1O)c1nn(-c2ccc(Cl)cc2Cl)c(-c2ccc(OS(=O)(=O)CCC(F)(F)F)cc2)c1CO (single isomer, unassigned) [Example 1, (−)3,3,3-Trifluoro-propane-1-sulfonic acid 4-[2-(2,4-dichloro-phenyl)-5-(2-hydroxy-cyclohexylcarbamoyl)-4-hydroxymethyl-2H-pyrazol-3-yl]-phenyl ester]
  IC50: 2.3 nM
